Converted amounts (≈) assume the structure as drawn.

Holding throughout (type): cell-based
For test [1], the system named is K. pneumoniae. Kind of test: Broth dilution MIC determination (CLSI) against K. pneumoniae strains. The source says: Minimum inhibitory concentrations (MICs) for macrolides described herein have been determined for unique strains of S. aureus, S. pneumoniae, S. pyogenes, E. faecalis, E. coli, A. baumannii, K. pneumoniae, P. aeruginosa, and H. influenzae, including several multidrug-resistant strains, with a special focus on macrolide resistant mechanisms. Azithromycin and solithromycin were included as control compounds. CLSI standard procedures for broth dilution MIC determination were used.

Test [2] deals with A. baumannii. Briefly: Broth dilution MIC determination (CLSI) against A. baumannii strains. The source says:
(§1) Minimum inhibitory concentrations (MICs) for macrolides described herein have been determined for unique strains of S. aureus, S. pneumoniae, S. pyogenes, E. faecalis, E. coli, A. baumannii, K. pneumoniae, P. aeruginosa, and H. influenzae, including several multidrug-resistant strains, with a special focus on macrolide resistant mechanisms. Azithromycin and solithromycin were included as control compounds. CLSI standard procedures for broth dilution MIC determination were used. Data for exemplary compounds described herein is shown in Tables M1-M7 and in Tables N1-N4.
For orientation: Broth dilution looks for growth in wells or tubes with falling amounts of substance.

Test [3] relates to E. coli. Kind of test: Broth dilution MIC determination (CLSI) against E. coli strains.
Source text: as §1

For test [4], the system named is P. aeruginosa. Kind of test: Broth dilution MIC determination (CLSI) against P. aeruginosa strains.
Source text: as §1

For test [5], the system named is S. aureus. Kind of test: Broth dilution MIC determination (CLSI) against S. aureus strains.
Source text: as §1

[6] abbreviates: K. pneumoniae ATCC 10031, strain MP-14 (Table N4).
Where [7] appears, read: K. pneumoniae Clinical, strain MP-548 (Table N4).
[8] abbreviates: K. pneumoniae Clinical-MDR, strain MP-546 (Table N4).
[9] abbreviates: A. baumannii ATCC 19606, strain MP-15 (Table N4).
Where [10] appears, read: A. baumannii Clinical-AZT low, strain MP-577 (Table N4).
Where [11] appears, read: A. baumannii Clinical-MDR, strain MP-576 (Table N4).
Setting [12] is: E. coli ATCC25922, strain MP-4 (Table N4).
The mark [13] stands for this setting: E. coli Clinical, strain MP-541 (Table N4).
Where [14] appears, read: E. coli clinical-cErmB, strain MP-532 (Table N4).
Where [15] appears, read: E. coli tolC, strain MP-9 (Table N4).
The mark [16] stands for this setting: P. aeruginosa ATCC27853, strain MP-3 (Table N4).
Where [17] appears, read: P. aeruginosa PAO1, strain MP-7 (Table N4).
The mark [18] stands for this setting: P. aeruginosa mex-oprM-deletion, strain MP-8 (Table N4).
Where [19] appears, read: S. aureus ATCC29213, strain MP-12 (Table N4).
Setting [20] is: S. aureus BAA 977 iErm, strain MP-17 (Table N4).
Where [21] appears, read: S. aureus Clinical-cErm, strain MP-513 (Table N4).
Setting [22] is: S. aureus USA300-msr(a), strain MP-549 (Table N4).

Usually MIC stands for the lowest concentration found to suppress growth. Read a low MIC as greater potency. Take `CCC1OC(=O)C(C)C(=O)C(C)C(OC2OC(C)CC(Nc3cnccn3)C2O)C(C)(OC)CC(C)CNC(C)C2N(CCCCn3cc(-c4cccc(N)c4)nn3)C(=O)OC12C` (centres unmarked) [FSM-120410]: the MIC in test [1] (setting [6]), in test [1] (setting [7]), in test [1] (setting [8]), in test [2] (setting [9]), in test [2] (setting [10]) and in test [2] (setting [11]) was over 64 µg/mL throughout. Further, the MIC in test [3] (setting [12]), in test [3] (setting [13]), in test [3] (setting [14]), in test [3] (setting [15]), in test [4] (setting [16]) and in test [4] (setting [17]) was over 64 µg/mL throughout. Besides, the MIC in test [4] (setting [18]), in test [5] (setting [19]), in test [5] (setting [20]), in test [5] (setting [21]) and in test [5] (setting [22]) was over 64 µg/mL in each case.
For `CCC1OC(=O)C(C)C(=O)C(C)C(OC2OC(C)CC(N3CCC(O)C3)C2O)C(C)(OC)CC(C)CNC(C)C2N(CCCCn3cc(-c4cccc(N)c4)nn3)C(=O)OC12C` (centres unmarked) [FSM-120416], the MIC in test [1] (setting [6]) is 32 µg/mL (≈ 36.8 µM); in test [1] (setting [7]) it was over 64 µg/mL; in test [1] (setting [8]) it was over 64 µg/mL; in test [2] (setting [9]), over 64 µg/mL; in test [2] (setting [10]), over 64 µg/mL; in test [2] (setting [11]), over 64 µg/mL. For the same compound, the minimum inhibitory concentration (MIC) in test [3] (setting [12]) was over 64 µg/mL; in test [3] (setting [13]), over 64 µg/mL; in test [3] (setting [14]) it was over 64 µg/mL; in test [3] (setting [15]), 8 µg/mL (≈ 9.19 µM); in test [4] (setting [16]) it was over 64 µg/mL; in test [4] (setting [17]), over 64 µg/mL. Also, the MIC in test [4] (setting [18]), in test [5] (setting [19]), in test [5] (setting [20]), in test [5] (setting [21]) and in test [5] (setting [22]) was over 64 µg/mL in each case.
As to `CCC1OC(=O)C(C)C(=O)C(C)C(OC2OC(C)CC(N3CCC(O)C3)C2O)C(C)(OC)CC(C)CNC(C)C2N(CCCCn3cc(-c4cccc(N)c4)nn3)C(=O)OC12C` (centres unmarked) [FSM-120417], the MIC is 4 µg/mL (≈ 4.6 µM) in test [1] (setting [6]); 64 µg/mL (≈ 73.6 µM) in test [1] (setting [7]); over 64 µg/mL in test [1] (setting [8]); 32 µg/mL (≈ 36.8 µM) in test [2] (setting [9]); 32 µg/mL (≈ 36.8 µM) in test [2] (setting [10]); over 64 µg/mL in test [2] (setting [11]). Besides, the MIC in test [3] (setting [12]) is 16 µg/mL (≈ 18.4 µM); in test [3] (setting [13]), 16 µg/mL (≈ 18.4 µM); in test [3] (setting [14]) it was over 64 µg/mL; in test [3] (setting [15]), 2 µg/mL (≈ 2.3 µM); in test [4] (setting [16]), over 64 µg/mL; in test [4] (setting [17]) it was over 64 µg/mL. For the same compound, the MIC in test [4] (setting [18]) is 32 µg/mL (≈ 36.8 µM); in test [5] (setting [19]), 32 µg/mL (≈ 36.8 µM); in test [5] (setting [20]), 64 µg/mL (≈ 73.6 µM); in test [5] (setting [21]), over 64 µg/mL; in test [5] (setting [22]) it was 64 µg/mL (≈ 73.6 µM).
For `CCC1OC(=O)C(C)C(=O)C(C)C(OC2OC(C)CC(N(C)CCO)C2O)C(C)(OC)CC(C)CNC(C)C2N(CCCCn3cc(-c4cccc(N)c4)nn3)C(=O)OC12C` (centres unmarked) [FSM-120418], the MIC in test [1] (setting [6]) was 8 µg/mL (≈ 9.32 µM); in test [1] (setting [7]), 64 µg/mL (≈ 74.6 µM); in test [1] (setting [8]), over 64 µg/mL; in test [2] (setting [9]) it was 16 µg/mL (≈ 18.6 µM); in test [2] (setting [10]) it was 32 µg/mL (≈ 37.3 µM); in test [2] (setting [11]), over 64 µg/mL. In addition, the MIC in test [3] (setting [12]) is 8 µg/mL (≈ 9.32 µM); in test [3] (setting [13]), 8 µg/mL (≈ 9.32 µM); in test [3] (setting [14]), over 64 µg/mL; in test [3] (setting [15]), 1 µg/mL (≈ 1.17 µM); in test [4] (setting [16]), over 64 µg/mL; in test [4] (setting [17]), over 64 µg/mL. Also, the MIC in test [4] (setting [18]) is 32 µg/mL (≈ 37.3 µM); in test [5] (setting [19]) it was 16 µg/mL (≈ 18.6 µM); in test [5] (setting [20]), 16 µg/mL (≈ 18.6 µM); in test [5] (setting [21]), over 64 µg/mL; in test [5] (setting [22]), 16 µg/mL (≈ 18.6 µM).
`CCC1OC(=O)C(C)C(=O)C(C)C(OC2OC(C)CC(N(C)CCO)C2O)C(C)(OC)CC(C)CN(C)C(C)C2N(CCCCn3cc(-c4cccc(N)c4)nn3)C(=O)OC12C` (centres unmarked) [FSM-120419]: the MIC in test [1] (setting [6]) is 16 µg/mL (≈ 18.3 µM); in test [1] (setting [7]), over 64 µg/mL; in test [1] (setting [8]), over 64 µg/mL; in test [2] (setting [9]), over 64 µg/mL; in test [2] (setting [10]), over 64 µg/mL; in test [2] (setting [11]), over 64 µg/mL. Further, the MIC in test [3] (setting [12]) is over 64 µg/mL; in test [3] (setting [13]), over 64 µg/mL; in test [3] (setting [14]), over 64 µg/mL; in test [3] (setting [15]), 4 µg/mL (≈ 4.59 µM); in test [4] (setting [16]), over 64 µg/mL; in test [4] (setting [17]), over 64 µg/mL. The minimum inhibitory concentration (MIC) in test [4] (setting [18]) is over 64 µg/mL; in test [5] (setting [19]), 32 µg/mL (≈ 36.7 µM); in test [5] (setting [20]), 32 µg/mL (≈ 36.7 µM); in test [5] (setting [21]), over 64 µg/mL; in test [5] (setting [22]) it was 32 µg/mL (≈ 36.7 µM).
With `CCC1OC(=O)C(C)C(=O)C(C)C(OC2OC(C)CC(N(C)CCCS(C)(=O)=O)C2O)C(C)(OC)CC(C)CNC(C)C2N(CCCCn3cc(-c4cccc(N)c4)nn3)C(=O)OC12C` (centres unmarked) [FSM-120420], the MIC is 16 µg/mL (≈ 17.1 µM) in test [1] (setting [6]); over 64 µg/mL in test [1] (setting [7]); over 64 µg/mL in test [1] (setting [8]); 32 µg/mL (≈ 34.3 µM) in test [2] (setting [9]); 64 µg/mL (≈ 68.5 µM) in test [2] (setting [10]); over 64 µg/mL in test [2] (setting [11]). For the same compound, the MIC was 64 µg/mL (≈ 68.5 µM) in test [3] (setting [12]); 32 µg/mL (≈ 34.3 µM) in test [3] (setting [13]); over 64 µg/mL in test [3] (setting [14]); 2 µg/mL (≈ 2.14 µM) in test [3] (setting [15]); over 64 µg/mL in test [4] (setting [16]); over 64 µg/mL in test [4] (setting [17]). The MIC is 64 µg/mL (≈ 68.5 µM) in test [4] (setting [18]); 32 µg/mL (≈ 34.3 µM) in test [5] (setting [19]); 32 µg/mL (≈ 34.3 µM) in test [5] (setting [20]); over 64 µg/mL in test [5] (setting [21]); 64 µg/mL (≈ 68.5 µM) in test [5] (setting [22]).
Regarding `CCC1OC(=O)C(C)C(=O)C(C)C(OC2OC(C)CC(N(C)CCCS(C)(=O)=O)C2O)C(C)(OC)CC(C)CN(C)C(C)C2N(CCCCn3cc(-c4cccc(N)c4)nn3)C(=O)OC12C` (centres unmarked) [FSM-120421], the MIC in test [1] (setting [6]) is 64 µg/mL (≈ 67.5 µM); in test [1] (setting [7]) it was over 64 µg/mL; in test [1] (setting [8]) it was over 64 µg/mL; in test [2] (setting [9]), over 64 µg/mL; in test [2] (setting [10]) it was over 64 µg/mL; in test [2] (setting [11]) it was over 64 µg/mL. Besides, the MIC in test [3] (setting [12]) was over 64 µg/mL; in test [3] (setting [13]), over 64 µg/mL; in test [3] (setting [14]), over 64 µg/mL; in test [3] (setting [15]), 64 µg/mL (≈ 67.5 µM); in test [4] (setting [16]), over 64 µg/mL; in test [4] (setting [17]), over 64 µg/mL. For the same compound, the MIC in test [4] (setting [18]), in test [5] (setting [19]), in test [5] (setting [20]), in test [5] (setting [21]) and in test [5] (setting [22]) was over 64 µg/mL each time.

(Values after patent US11535643B2, “Macrolides with modified desosamine sugars and uses thereof” (President and Fellows of Harvard College, priority 2015, dated 2022).)
